In the test the target is PDE4D3 (Homo sapiens, UniProt Q08499). As to the kind of experiment: biochemical.

The values below come from article PMC3175485 (2011).

Sequence of PDE4D3 (Q08499 1-673 isoform Q08499-2): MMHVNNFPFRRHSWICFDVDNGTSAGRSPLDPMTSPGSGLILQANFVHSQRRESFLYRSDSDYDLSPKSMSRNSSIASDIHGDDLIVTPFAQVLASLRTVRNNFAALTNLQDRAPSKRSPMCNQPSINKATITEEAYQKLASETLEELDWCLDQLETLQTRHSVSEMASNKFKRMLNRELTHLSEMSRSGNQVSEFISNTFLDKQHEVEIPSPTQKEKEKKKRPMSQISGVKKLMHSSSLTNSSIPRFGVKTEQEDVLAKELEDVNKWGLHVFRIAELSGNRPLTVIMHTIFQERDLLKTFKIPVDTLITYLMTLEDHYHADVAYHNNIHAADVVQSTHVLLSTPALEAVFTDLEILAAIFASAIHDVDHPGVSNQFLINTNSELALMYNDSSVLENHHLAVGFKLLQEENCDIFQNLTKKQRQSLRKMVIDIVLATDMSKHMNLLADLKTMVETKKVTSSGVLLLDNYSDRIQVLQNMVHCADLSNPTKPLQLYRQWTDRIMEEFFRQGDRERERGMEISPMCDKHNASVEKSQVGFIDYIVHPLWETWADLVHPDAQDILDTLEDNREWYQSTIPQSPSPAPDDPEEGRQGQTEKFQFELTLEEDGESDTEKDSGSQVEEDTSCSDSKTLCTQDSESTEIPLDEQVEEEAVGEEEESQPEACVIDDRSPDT

What is called IC50 is the concentration that gives 50% inhibition. Regarding `COc1ccc(-c2cc(C(F)F)nn2-c2ccc(S(N)(=O)=O)cc2)cc1F` [deracoxib], 3.6 ± 0.5 µM corresponded to half-maximal inhibition (IC50).
